This is an account of results in patent publication US9073902B2 (BioEnergenix, LLC, priority 2011, dated 2015).

The target in the assay is T1, hPASK (Homo sapiens, UniProt Q96RG2).
T1 construct: IC50 Kinase Domain; purchased Invitrogen
The experiment in a line: PAS Kinase FRET Assay (Biochemical Assay for hPASK Activity). The note with it: TR-FRET (665 nm/615 nm), 2 hours at 25° C.; read-out: IC50 Kinase Domain. An excerpt:
Biochemical Assay for hPASK Activity
The aim of the FRET assay is to determine the inhibition potential of test compounds on targeted kinase. This assay platform provides a homogenous screening method for measuring kinase activity by quantitating the amount of phospho-substrate in solution following a kinase reaction.
In the presence of kinase and ATP, the Ulight-peptide is phosphorylated and captured by an anti-phospho-substrate antibody, which brings the Eu chelate donor and Ulight acceptor dyes into close proximity. Upon excitation at 340 nm, the Eu chelate transfers its energy to the Ulight dye, resulting in a fluorescent light emission at 665 nm.
Titration of kinase at 1 mM ATP was achieved via the following protocol. After making serial three-fold dilutions of PASK (Invitrogen) in reaction buffer across the plate; 5 μl of kinase dilution and 5 μl substrate/ATP mix were added to the wells of the white Optiplate-384 (PerkinElmer). The contents of the plate were and incubated at RT for 1 h. The reaction was stopped by adding 5 μl of stop solution to each test well followed by mixing and incubation at RT for 10 minutes. 5 μl of detection mix (detection antibody diluted in detection buffer) was added; the contents of the plate were mixed and then incubated in the dark for 1 hour at RT. The signal was recorded at TR-FRET mode (665 nm/615 nm). The results were graphed to calculate the EC50.
Titration of ATP at the EC50 concentration of kinase to determine ATP Km, app. was performed using the following method. After making serial dilutions of ATP (Invitrogen), 5 μl of ATP dilution and 5 μl substrate/kinase mix were added to the wells of the white Optiplate-384 (PerkinElmer). The contents of the plate were and incubated at RT for 1 h. The reaction was stopped by adding 5 μl of stop solution to each test well followed by mixing and incubation at RT for 10 minutes. 5 μl of detection mix (detection antibody diluted in detection buffer) was added; the contents of the plate were mixed and then incubated in the dark for 1 hour at RT. The signal was recorded at TR-FRET mode (665 nm/615 nm). The results were graphed to calculate the EC50 as the ATP Km,app.
Compound screening was done via the following method. 10 mM stock solution of test compound in DMSO was prepared by dissolving test compound in DMSO at RT for 1 hour, and then sonicating at 100% output for 8 minutes. If compound is not soluble under this condition, it was diluted to 3 mM. Kinase reaction buffer was prepared containing 10 mM MgCl2, 50 mM HEPES, 1 mM EGTA, 0.01% TWEEN-20, 2 mM DTT. Serial dilutions of the test compounds were prepared at 4× final assay concentrations using Freedom EVO200® dispensing system as follows: 12×10^−5 M, 4×10^−5M, 1.33×10^−5M, 4.44×10^−6M, 1.48×10^−6M, 4.92×10^−7M, 1.65×10^−7M, 5.48×10^−7 M, 1.82×10^−8 M, 6.09×10^−9, 2.03×10^−9 M. Test compounds (2.5 μl at 4× the final assay concentration) was added to wells using Freedom EVO200® dispensing system. As a positive control, 2.5 μl of positive compound was added to assay wells, and 2.5 μl of DMSO to assay wells as vehicle control. Kinase solution was prepared in reaction buffer at 2× final assay concentration. Kinase solution (5 μl) was added to each well of the assay plate. The substrate and ATP solution was prepared in kinase reaction buffer at 4× final assay concentration. The kinase reaction was started by adding 2.5 μl of substrate+ATP mix solution to each well of the assay plate. The plate is mixed on a plate shaker; then covered and allowed to react for 2 hours in the dark at 25° C. without shaking. The reaction was stopped by adding 5 μl of stop solution to each test well followed by mixing and incubation at RT for 10 minutes in the dark. 5 μl of detection mix (detection antibody diluted in detection buffer) was added; the contents of the plate were mixed and then incubated in the dark for 1 hour at RT. The signal was recorded at TR-FRET mode (665 nm/615 nm).

pIC50: −log10 of the molar value.

T1 sequence (Q96RG2 999-1251 limits assumed): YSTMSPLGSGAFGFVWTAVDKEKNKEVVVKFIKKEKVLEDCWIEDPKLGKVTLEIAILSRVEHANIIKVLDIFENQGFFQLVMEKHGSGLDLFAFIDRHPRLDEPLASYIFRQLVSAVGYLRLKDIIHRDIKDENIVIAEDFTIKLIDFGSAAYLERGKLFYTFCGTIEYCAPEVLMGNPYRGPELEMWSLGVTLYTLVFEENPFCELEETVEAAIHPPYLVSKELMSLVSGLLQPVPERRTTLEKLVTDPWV

For the compound `O=C(O)c1ccc2nc(-c3ccc(F)cc3)c(N3CCCc4c(F)cccc43)nc2c1` [Example 19], the pIC50 was no less than 5.00.

For the compound `O=C(O)c1ccc2nc(-c3ccc(F)cc3)c(N3CCCc4cc5c(cc43)OCO5)nc2c1` [Example 24, 3-[2H,5H,6H,7H,8H-[1,3]Dioxolo[4,5-g]quinolin-5-yl]-2-(4-fluorophenyl)quinoxaline-6-carboxylic acid], the pIC50 is no less than 5.00.

Regarding `O=C(O)c1ccc2nc(-c3ccc(F)cc3)c(N3CCCc4cc(C(=O)N5CCOCC5)ccc43)nc2c1` [Example 15, 2-(4-Fluorophenyl)-3-[6-[(morpholin-4-yl)carbonyl]-1,2,3,4-tetrahydroquinolin-1-yl]quinoxaline-6-carboxylic acid], the pIC50 is no less than 5.00.

With `COc1ccc2c(c1)CCCN2c1nc2cc(C(=O)O)ccc2nc1-c1cc2cc(F)ccc2o1` [Example 7, 2-(5-Fluoro-1-benzofuran-2-yl)-3-(6-methoxy-1,2,3,4-tetrahydroquinolin-1-yl)quinoxaline-6-carboxylic acid], the pIC50 was no less than 5.00.

For the compound `COc1ccc2c(c1)CCCN2c1nc2cc(C(=O)O)ccc2nc1-c1ccc(F)cc1` [Example 5, 2-(4-Fluorophenyl)-3-(6-methoxy-1,2,3,4-tetrahydroquinolin-1-yl)quinoxaline-6-carboxylic acid], the pIC50 was no less than 5.00.

Regarding `CN(C)S(=O)(=O)c1ccc2c(c1)CCCN2c1nc2cc(C(=O)O)ccc2nc1-c1ccc(F)cc1` [Example 16, 3-[6-(Dimethylsulfamoyl)-1,2,3,4-tetrahydroquinolin-1-yl]-2-(4-fluorophenyl)quinoxaline-6-carboxylic acid], the negative-log IC50 (pIC50) was no less than 5.00.

In the case of `NC(=O)c1ccc2c(c1)CCCN2c1nc2cc(C(=O)O)ccc2nc1-c1ccc(F)cc1` [Example 14, 3-(6-Carbamoyl-1,2,3,4-tetrahydroquinolin-1-yl)-2-(4-fluorophenyl)quinoxaline-6-carboxylic acid], the pIC50 is no less than 5.00.

`O=C(O)c1ccc2nc(-c3ccc(F)cc3)c(N3CCCc4cc(Br)ccc43)nc2c1` [Example 13]: the pIC50 is no less than 5.00.

`O=C(O)c1ccc2nc(-c3ccc(F)cc3)c(N3CCCc4cc(Cl)ccc43)nc2c1` [Example 18, 3-(6-Chloro-1,2,3,4-tetrahydroquinolin-1-yl)-2-(4-fluorophenyl)quinoxaline-6-carboxylic acid]: the pIC50 was no less than 5.00.

For the compound `Cc1cc2cc(-c3nc4ccc(C(=O)O)cc4nc3N3CCCc4cc(F)ccc43)ccc2[nH]1` [Example 20, 3-(6-Fluoro-1,2,3,4-tetrahydroquinolin-1-yl)-2-(2-methyl-1H-indol-5-yl)quinoxaline-6-carboxylic acid], the negative logarithm of the IC50 (pIC50) is no less than 5.00.

Take `O=C(O)c1ccc2nc(-c3cc4ccccc4o3)c(N3CCCc4ccccc43)nc2c1` [Example 2, 2-(Benzofuran-2-yl)-3-(1,2,3,4-tetrahydroquinolin-1(2H)-yl)quinoxaline-6-carboxylic acid]: the pIC50 is no less than 5.00.

On to `O=C(O)c1ccc2nc(-c3cc4cc(F)ccc4o3)c(N3CCCc4ccccc43)nc2c1` [Example 3, 3-(1,2,3,4-Tetrahydroquinolin-1(2H)-yl)-2-(5-fluorobenzofuran-2-yl)quinoxaline-6-carboxylic acid], for which the negative logarithm of the IC50 (pIC50) was no less than 5.00.

As for `COc1ccc2c(c1)N(c1nc3cc(C(=O)O)ccc3nc1-c1ccc(F)cc1)CCC2` [Example 22, 2-(4-Fluorophenyl)-3-(7-methoxy-1,2,3,4-tetrahydroquinolin-1-yl)quinoxaline-6-carboxylic acid], the negative-log IC50 (pIC50) is no less than 5.00.

As for `O=C(O)c1ccc2nc(-c3ccc(F)cc3)c(N3CCCc4cc(F)ccc43)nc2c1` [Example 6, 3-(6-Fluoro-1,2,3,4-tetrahydroquinolin-1-yl)-2-(4-fluorophenyl)quinoxaline-6-carboxylic acid], the negative logarithm of the IC50 (pIC50) is no less than 5.00.

For the compound `O=C(O)c1ccc2nc(-c3ccc(F)cc3)c(N3CCCc4ccccc43)nc2c1` [Example 1, 3-(1,2,3,4-Tetrahydroquinolin-1(2H)-yl)-2-(4-fluorophenyl)quinoxaline-6-carboxylic acid], the pIC50 was no less than 5.00.

Take `O=C(O)c1ccc2[nH]c(=O)c(N3CCCc4ccccc43)nc2c1` [Example 10, 2-Oxo-3-(1,2,3,4-tetrahydroquinolin-1-yl)-1,2-dihydroquinoxaline-6-carboxylic acid]: the pIC50 was less than 5.00.

For `O=C(O)c1ccc2nc(-c3cc4cc(Cl)ccc4o3)c(N3CCCc4cc(F)ccc43)nc2c1` [Example 8, 2-(5-Chloro-1-benzofuran-2-yl)-3-(6-fluoro-1,2,3,4-tetrahydroquinolin-1-yl)quinoxaline-6-carboxylic acid], the pIC50 is no less than 5.00.

On to `O=C(O)c1ccc2nc(-c3ccc4[nH]ncc4c3)c(N3CCCc4cc(F)ccc43)nc2c1` [Example 21, 3-(6-Fluoro-1,2,3,4-tetrahydroquinolin-1-yl)-2-(1H-indazol-5-yl)quinoxaline-6-carboxylic acid], for which the pIC50 was no less than 5.00.

For the compound `COc1ccc2c(c1)CCCN2c1nc2cc(C(=O)O)ccc2nc1-c1cc2cc(Cl)ccc2o1` [Example 9, 2-(5-Chloro-1-benzofuran-2-yl)-3-(6-methoxy-1,2,3,4-tetrahydroquinolin-1-yl)quinoxaline-6-carboxylic acid], the pIC50 is no less than 5.00.

On to `N#Cc1ccc2c(c1)CCCN2c1nc2cc(C(=O)O)ccc2nc1-c1ccc(F)cc1` [Example 12, 3-(6-Cyano-1,2,3,4-tetrahydroquinolin-1-yl)-2-(4-fluorophenyl)quinoxaline-6-carboxylic acid], for which the pIC50 is no less than 5.00.

On to `CN(C)c1ccc2c(c1)CCCN2c1nc2cc(C(=O)O)ccc2nc1-c1ccc(F)cc1` [Example 17, 3-[6-(Dimethylamino)-1,2,3,4-tetrahydroquinolin-1-yl]-2-(4-fluorophenyl)quinoxaline-6-carboxylic acid], for which the pIC50 is no less than 5.00.

Consider `O=C(O)c1ccc2nc(-c3ccc4c(c3)OCCO4)c(N3CCCc4ccccc43)nc2c1` [Example 4, 2-(2,3-Dihydro-1,4-benzodioxin-6-yl)-3-(1,2,3,4-tetrahydroquinolin-1-yl)quinoxaline-6-carboxylic acid], for which the negative-log IC50 (pIC50) was no less than 5.00.

For the compound `O=C(O)c1ccc2nc(-c3ccc(F)cc3)c(N3CCCc4ccc(F)cc43)nc2c1` [Example 23, 3-(7-Fluoro-1,2,3,4-tetrahydroquinolin-1-yl)-2-(4-fluorophenyl)quinoxaline-6-carboxylic acid], the pIC50 is no less than 5.00.
